System: AMPA receptors
Test: Excitatory fluxes induced by AMPA in Xenopus oocytes (2-electrode voltage-clamp)
Assay type: cell-based
Settings: AMPA 30 μM; Xenopus oocytes injected with rat cortex poly(A+) mRNA; 20-24° C.
Experimental: mRNAs are prepared from cerebral cortex of male Wistar rat by the guanidium thiocyanate/phenol/chloroform method. The poly(A^+)mRNAs are isolated by chromatography on oligo-dT cellulose and injected with 50 ng per oocyte. The oocytes are left for 2 to 3 days' incubation at 10° C. to enable expression of the receptors and are then stored at 8-10° C.
Electrophysiological recording is carried out in a plexiglass chamber at 20-24° C. in an OR2 medium (J. Exp. Zool., 1973, 184, 321-334) by the 2-electrode “voltage-clamp” method, with a 3rd electrode being placed in the bath to serve as reference.
All the compounds are administered via the incubation medium and the electric current is measured at the end of the period of administration. AMPA is used in a concentration of 30 μM. For each compound studied, there is determined the concentration that doubles (EC2X) or quintuples (EC5X) the intensity of the flux induced by AMPA alone (50 to 100 nA).

Compound | EC2X (concentration that doubles the intensity of the flux induced by AMPA alone) [µM] | EC5X (concentration that quintuples the intensity of the flux induced by AMPA alone) [µM]
CCN1CNS(=O)(=O)c2cc(Br)ccc21 [Example 3, 7-Bromo-4-ethyl-2,3-dihydro-4H-1,2,4-benzothiadiazine 1,1-dioxide] | 29 ± 6 | 78 ± 16
CCN1CNS(=O)(=O)c2cc(I)ccc21 [Example 4, 4-Ethyl-7-iodo-2,3-dihydro-4H-1,2,4-benzothiadiazine 1,1-dioxide] | 95 ± 31 | >300
